In patent US20250195556A1, “COMPOSITIONS, KITS, AND METHODS TO INDUCE ACQUIRED CYTORESISTANCE USING STRESS PROTEIN INDUCERS” (FRED HUTCHINSON CANCER RESEARCH CENTER, priority 2014, published 2025):
“And” between values parts separate entries of the source, which are not always exact repeats. Equal values may be shown once.

Experiments:
[1] = tested on: HO-1; assay: Renal cortical HO-1 mRNA (RT-PCR) and protein (ELISA) after IV myoglobin, SnPP or both (Example 1); assay type: in vivo, mice
Text: The Glycerol Model of AKI. This is a widely used model of rhabdomyolysis-induced AKI that has been employed worldwide for 50 years. The model was used to test whether prophylactic interventions confer protection against AKI. Basically, the protocol is as follows: Male CD-1 mice (35-45 grams), obtained from Charles River Laboratories, Wilmington, M A were studied. Mice were maintained under standard vivarium conditions and generally housed for 1-3 weeks prior to study. The mice were placed in a cylindrical restraining cage, and then were given a tail vein injection of the test substances (see below) or test substance vehicle. The mice were then returned to their cages. Eighteen hours (hrs) later, the mice were briefly anesthetized by isoflurane inhalation, and given an intramuscular injection of hypertonic (50%) glycerol in a dose of 9 ml/Kg body weight. The dose is divided in two, with half injected into the muscle of each of the hind limbs. The mice were then returned to their cages. Eighteen hrs later, the mice were deeply anesthetized with pentobarbital (50-100 mg/Kg), the abdominal cavity was opened through a midline abdominal incision, a blood sample was obtained from the abdominal vena cava and the kidneys were resected. A kidney cross section was obtained and fixed in formalin for subsequent histologic analysis. The terminal blood samples were analyzed for BUN and creatinine, using commercially available assay kits. The remaining kidney tissue was subjected to cortical dissection, and the cortical tissues were then extracted for protein and RNA. The protein samples were saved for analysis of HO-1 levels, and the RNA samples were subjected to RT-PCR to quantify HO-1 mRNA as well as levels of other stress gene mRNAs (e.g. NGAL, haptoglobin, hemopexin, hepicidin).
Myoglobin+SnPP: To 5 mg of dry myoglobin was added 0.9 ml of PBS+0.1 ml of a stock SnPP solution (50 umole/ml). The resulting final concentrations were 5 mg/ml myoglobin+5 umoles/ml of SnPP. The tail vein was injected with 200 μl of this solution, which equals 1 mg myoglobin+1 umole SnPP. […]
Four hr post myoglobin vs myoglobin+SnPP vs SnPP alone experiments. To confirm that the myoglobin+SnPP has a synergistic effect in inducing HO-1 mRNA and HO-1 protein levels, each of the above combinations have been administered alone via tail vein injection. Four hrs later, the mice were sacrificed as noted above and the kidneys were harvested for assessment of HO-1 mRNA and protein levels. For additional information regarding methods, see Zager et al., Am J Physiol Renal Physiol. 2014 Jul. 30. Pii.

[2] = tested on: IL-10; assay: Renal cortical IL-10 mRNA and protein after IV N-Mgb, SnPP or both; assay type: in vivo, mice; settings: for Kidney protein: IL-10: control 304
Text: Cytoresistance-inducing reagents. […] (#Mb0360; Sigma) was used as the primary cytoresistance-inducing agent. However, because myoglobin (Mgb) has an inherent nephrotoxic potential (particularly under conditions of volume depletion and aciduria), two approaches were used to mitigate Mgb's potential adverse effects. First, the Mgb was converted into a nitrited form by the addition of equimolar amount of sodium (Na) nitrite. In this regard, nitrite is an ambidentate molecule that directly binds 1:1 to myoglobin Fe either via its oxygen or nitrogen component. Cotton et al. Advanced inorganic chemistry. Hobocken, NJ: Wiley-Interscience, 1999:1355; Silaghi-Dumitrescu et al. Nitric Oxide 2014; 42 C: 32-9. […] Rassaf et al. Circ Res 2014; 114:1601-10; Totzeck et al. Circulation 2012; 126:325-34 [J Clin Invest 1992; 89:989-95]; Totzeck et al. PLOS One 2014; 22: e105951; Hendgen-Cotta et al. Proc Natl Acad Sci USA 2008; 105:10256-61.
(§1) Thirty-two mice were divided into 4 equal groups: (1) control mice; (2) mice treated with 1 mg of N-Mgb injection (as a bolus through the tail vein); (3) mice treated with […] of SnPP (via tail vein); and (4) mice treated with combined N-Mgb 1 SnPP. After either 4 hours (n=16) or 18 hours (n=16), the mice were deeply anesthetized with pentobarbital (50 mg/kg), the abdomen was opened through a midline abdominal incision, and the kidneys were removed. To determine potential effects on extrarenal organs, a liver lobe and the heart were also removed. The tissues were iced and then extracted for protein and RNA (RNeasy Plus Mini; Qiagen, Valencia, California) and subjected to enzyme linked immunosorbent assay (ELISA) and reverse transcriptase polymerase chain reaction (RT-PCR) for HO-1, haptoglobin, and IL-10 protein and messenger RNAs (mRNAs). Zager et al. J Am Soc Nephrol 2014; 25:998-1012; Zager et al. Am J Physiol 2012; 303: F139-48. As an assessment of renal function, control mice and the 18 hour after N-Mgb+SnPP-treated mice had blood urea nitrogen (BUN) and plasma creatinine levels measured. Additionally, transverse 10% formalin fixed kidney sections ([…]) were cut and stained with hematoxylin and eosin (H&E) and periodic acid Schiff (PAS) to further assess potential injury.

[3] = tested on: Male CD-1 mice; assay: Glycerol model of rhabdomyolysis-induced AKI (Example 4); assay type: in vivo; settings: IV pretreatment 18 hours before glycerol; 18 hours after glycerol
Experimental: Assessments of cytoresistance. Glycerol model of rhabdomyolysis-induced AKI. Twenty mice were divided into 4 equal groups (controls, mice treated with N-Mgb, SnPP, and mice treated with N-Mgb+SnPP tail vein injections) as described previously. 18 hours later, the mice were briefly anesthetized with isoflurane and immediately injected with 9 mL/kg of 50% glycerol, administered in equally divided doses into each hind limb. At 18 hours after glycerol injection, the mice were anesthetized with pentobarbital, the abdomen was opened, a blood sample for BUN and creatinine assessments was obtained from the vena cava, and the kidneys were resected. The control post-glycerol group and the N-Mgb+SnPP-pretreated glycerol group had kidney sections stained with H&E.
Calculations and statistics. All values are given as the mean […] standard error of the mean. Statistical comparisons were made by unpaired Student's t test. If multiple comparisons were made, the Bonferroni correction was applied. The severity of renal histologic injury in the glycerol AKI model was graded on a […] (least to most severe tubular necrosis and cast formation observed). The histologic results were compared by Wilcoxon rank sum test. Statistical significance was taken as a P value of <0.05.

[4] = tested on: haptoglobin; assay: Liver haptoglobin mRNA and protein after IV N-Mgb, SnPP or both; assay type: in vivo, mice; design: Liver protein: Haptoglobin: unit not given beside the values; settings: for Liver mRNA: Haptoglobin: control 0.5; for Liver protein: Haptoglobin: control 115.3
Experimental: as §1

[5] = tested on: IL-10; assay: Liver IL-10 mRNA and protein after IV N-Mgb, SnPP or both; assay type: in vivo, mice; settings: for Liver mRNA: IL-10: control 0.06; for Liver protein: IL-10: control 314
Experimental: as §1

[6] = tested on: cultured proximal tubule (HK-2) cells; settings: Zager & Burkhart, Kidney Int 1997; cited from earlier work

Structure (SMILES): C=Cc1c2[n-]c(c1C)/C=c1\[n-]/c(c(C)c1C=C)=C\c1[n-]c(c(CCC(=O)O)c1C)/C=c1\[n-]c(c(C)c1CCC(=O)O)=C2.[Sn+4] [SnPP, tin protoporphyrin, reference compound]
- HO-1 protein expression (by ELISA), Average ([1]; cortex, 4 hr IV, 1 mg myoglobin, 1 μmole SnPP, PBS 13.5, carrier 21.5): 34.4 ng HO-1/mg protein
- HO-1 protein expression (by ELISA) ([1]; cortex, 4 hr IV, 1 mg myoglobin, 1 μmole SnPP, individual mice): 31.5 ng HO-1/mg protein and 20.5 ng HO-1/mg protein and 53.6 ng HO-1/mg protein and 32.2 ng HO-1/mg protein
- HO-1/GAPDH mRNA, Average ([1]; kidney, 4 hr post IV injection, control average 1.93): 6.94
- HO-1/GAPDH mRNA ([1]; kidney, 4 hr post IV injection, individual mice): 9.72 and 8.25 and 6.95 and 2.85
- Kidney mRNA: IL-10 ([2]; 4 h after Rx, control 0.56): 0.39 ± 0.15
- Kidney protein: IL-10 ([2]; 4 h after Rx): 550 ± 86
- Kidney mRNA cortex: IL-10 ([2]; 18 h after Rx, control 0.56): 0.18 ± 0.09
- Kidney protein: IL-10 ([2]; 18 h after Rx): 454 ± 51
- Protection against glycerol-induced AKI (BUN/creatinine levels) [3]: virtually no effect
- Liver mRNA: Haptoglobin ([4]; 4 h after Rx): 0.32 ± 0.02
- Liver protein: Haptoglobin ([4]; 4 h after Rx): 130.0 ± 8.9
- Liver mRNA: Haptoglobin ([4]; 18 h after Rx): 0.65 ± 0.17
- Liver protein: Haptoglobin ([4]; 18 h after Rx): 212.0 ± 63.6
- Liver mRNA: IL-10 ([5]; 4 h after Rx): 0.14 ± 0.1
- Liver protein: IL-10 ([5]; 4 h after Rx): 485 ± 47
- Liver mRNA: IL-10 ([5]; 18 h after Rx): 0.05 ± 0.01
- Liver protein: IL-10 ([5]; 18 h after Rx): 8198 ± 725
- Reduction of Mgb toxicity by SnPP addition [6]: ≤ 85%
